In PMC7405733, “Pharmacokinetics of micafungin in patients treated with extracorporeal membrane oxygenation: an observational prospective study” (Revista Brasileira de Terapia Intensiva, 2020):
≈ marks a conversion by molar mass, not a printed value. Read-outs that look alike come from different tables or passages of the source. *1 amine or outer side, *2 acyl side, *3 side chain or, on linkers, in order; H or OH if unused. Where a SMILES comes first, the peptide text is derived from it. Bridges are numbered along the chain shown (N, C = ends). [ ]: non-standard residue; d: D form. The star is where a group is joined. hTyr(3S-OH,4S-OH,3'-OSO3H) = N[C@H](C(=O)O)[C@H](O)[C@@H](O)c1ccc(O)c(OS(=O)(=O)O)c1; Orn(4R-OH,5R-OH) = O=C([C@H](C[C@@H](O)[C@@H](O)N[*:3])N[*:1])[*:2]; Pro(3S-OH,4S-Me) = C[C@H]1CN[C@H](C(=O)O)[C@H]1O; X1 = CCCCCOc1ccc(-c2cc(-c3ccc(C(=O)*)cc3)no2)cc1; Gln(3R-OH) = NC(=O)C[C@@H](O)[C@H](N)C(=O)O; Hyp = O=C(O)[C@@H]1C[C@@H](O)CN1

Legend:
[1] = parameters: method as in PMID 25947367; conditions: daily dose of 100mg, cited from earlier work
[2] = ECMO patients vs non-ECMO patients; hemodialysis was used in 4 patients; cited from earlier work
Description: Adsorption by the hemoﬁlter appears to be the most likely explanation when this is in line with an ECMO system. In an “ex vivo” study, the recovery of micafungin was 91% when the in-line hemofilter was removed.

candidemia = assay: Candidemia in patients on ECMO receiving prophylactic micafungin; assay type: in vivo, human; conditions: prophylactic micafungin 100mg, 12 adult ECMO patients
Description: (§1) We conducted an observational, prospective, noninterventional and nondrug-linked study of the PKs and safety of micafungin in adult patients treated with ECMO in two Spanish hospitals: the intensive care unit (ICU) of the Hospital Universitario Marqués de Valdecilla, Santander, and the Anaesthesiology and Reanimation Department of the Hospital Universitario La Fe, Valencia, Spain. Prophylactic micafungin was administered in all patients. The study period was from January 2015 until April 2016. The PK analysis was performed in the Hospital del Mar, Barcelona, Spain. The trial was authorized by the corresponding Ethics Committees (CEIC Approval Number 17/2014), and Informed Consent of all the patients or their legal representatives was obtained.

[3] = Micafungin plasma pharmacokinetics in adult patients treated with ECMO (samples before and after the oxygenation membrane); assay type: in vivo, human; conditions: for clearance / Vd / Cmax / AUC: human
Description: as §1
Micafungin was given at a dose of 100mg diluted in 100ml of 0.9% saline in a 60-minute infusion always protected from light to prevent degradation. Five mL blood samples were taken, protected from light, on days 1 and 4 of the treatment with micafungin. The samples were taken through an access point before and after the oxygenation membrane (input and output, respectively). The extraction times for the calculation of complete PK curves were as follows: before the administration of the drug (trough or zero time); immediately after intravenous infusion (1-hour peak or end-of-infusion peak); and 3, 5, 8, 18 and 24 hours after the beginning of the infusion. Samples were centrifuged at a speed of 1,000g for ten minutes at 4 °C. The supernatant plasma was aliquoted into volumes of 150µl that were frozen at -80 °C until they were to be analyzed. The measurement of the total micafungin concentration (free plus protein-bound fractions) was performed by means of a high-performance liquid chromatography technique.
The following PK parameters were calculated: area under the curve (AUC), CL, Vd and plasma half-life time (t/2) with a noncompartmental PK data analysis using a nonparametric method: the Mann-Whitney test and the Wilcoxon signed-rank test (paired test, in consecutive days). For precision analysis, confidence intervals were calculated by bootstrapping with 1,000 repetitions using the method […] (BCa).
The calculation of the differences in the concentration of micafungin at the input (Cin) and output (Cout) of the oxygenator membrane allowed us to calculate the oxygenator’s degree of extraction. It should be remembered that there may be losses of micafungin in tubes and cannula and in the centrifugal pump.
Only continuous epidemiological and clinical data are presented as the mean and standard deviation (SD), and categorical data are presented as absolute numbers because of the small sample size. The rest of the parameters, including Cmin and Cmax, are presented as medians.

Candida albicans = tested on: Candida albicans; parameters: method as in PMID 24153129, PMID 21300835; conditions: published for Candida albicans; cited from earlier work

For `CCCCCOc1ccc(-c2cc(-c3ccc(C(=O)N[C@H]4C[C@@H](O)[C@@H](O)NC(=O)[C@@H]5[C@@H](O)[C@@H](C)CN5C(=O)[C@H]([C@H](O)CC(N)=O)NC(=O)[C@H]([C@H](O)[C@@H](O)c5ccc(O)c(OS(=O)(=O)O)c5)NC(=O)[C@@H]5C[C@@H](O)CN5C(=O)[C@H]([C@@H](C)O)NC4=O)cc3)no2)cc1` [micafungin] (X1-[Orn(4R-OH,5R-OH)]T[Hyp][hTyr(3S-OH,4S-OH,3'-OSO3H)][Gln(3R-OH)][Pro(3S-OH,4S-Me)]; lactam 1-C), the “AUC after a daily dose of 100mg in ICU patients” value ([1]; ICU patients (without ECMO)) is listed as 78.6 mg·h/L, the “AUC after a daily dose of 100mg in healthy adults” value ([1]; healthy adults) is listed as 132.6 mg·h/L and the “reduction in the AUC in the ECMO group versus non-ECMO control group” value [2] is listed as 23%. The “candidemia in patients on ECMO who received prophylactic micafungin” value (candidemia) was “No candidemia was observed”, the Cmin out ([3]; Table 2, day 1, after membrane, 100mg iv, ECMO patients, plasma HPLC, median) was 1410 ng/mL and the “CL in” value ([3]; Table 2, day 1, before membrane, 100mg iv, ECMO patients, noncompartmental, median) was 1.07 L/h. For the same molecule, the “Cmin in” value ([3]; Table 2, day 1, before membrane, 100mg iv, ECMO patients, plasma HPLC, median) was 1410 ng/mL, the Cmin out ([3]; Table 2, day 4, after membrane, 100mg iv, ECMO patients, plasma HPLC, median) was 1750 ng/mL and the “Cmin in” value ([3]; Table 2, day 4, before membrane, 100mg iv, ECMO patients, plasma HPLC, median) was 1800 ng/mL. The “AUCin on day one” value ([3]; adult ECMO patients, 100mg 60-minute iv infusion, day 1, sample before the membrane, plasma total concentration by HPLC, noncompartmental, 95%CI 52.8 - 73.4, 10 patients) was 62100 ng·h/mL, the “AKI AUCout” value ([3]; day 1, ECMO patients with acute kidney injury, after membrane, 100mg iv, p = 0.71) was 69.3 p = 0.71 and the “Hepatic failure AUCout” value ([3]; day 1, ECMO patients with hepatic failure, after membrane, 100mg iv, p = 0.91) was 61.6 p = 0.91. The “AKI AUCout” value ([3]; day 4, ECMO patients with acute kidney injury, after membrane, 100mg iv, p = 0.88) was 106.7 p = 0.88, the “Hepatic failure AUCout” value ([3]; day 4, ECMO patients with hepatic failure, after membrane, 100mg iv, p = 0.68) was 85.2 p = 0.68 and the “concentration difference between samples before the membrane (C in) and after the membrane (C out)” value ([3]; first day of treatment, 100mg iv, ECMO patients, figure 1A) was “did not show any concentration difference”. For the same molecule, the “concentration difference between samples before the membrane (Cin) and after the membrane (Cout)” value ([3]; fourth day of treatment, 100mg iv, ECMO patients, figure 1B) was “did not show any concentration difference”, the clearance ([3]; plasma, iv, 100 mg, Table 2, day 1, after membrane, 100mg iv, ECMO patients, noncompartmental, median, read-out: CL out (converted)) was 16.5 mL/min and the Vd ([3]; plasma, iv, 100 mg, Table 2, day 1, after membrane, 100mg iv, ECMO patients, noncompartmental, median, read-out: Vd out) was 27.2 L. It also gave a Cmax ([3]; plasma, iv, 100 mg, Table 2, day 1, after membrane, 100mg iv, ECMO patients, plasma HPLC, median, read-out: Cmax out) of 4950 ng/mL, an AUC ([3]; plasma, iv, 100 mg, Table 2, day 1, after membrane, 100mg iv, ECMO patients, plasma HPLC, noncompartmental, median, read-out: AUC out) of 54100 ng·h/mL and a Vd ([3]; plasma, iv, 100 mg, Table 2, day 1, before membrane, 100mg iv, ECMO patients, noncompartmental, median, read-out: Vd in) of 28.6 L. It also gave a Cmax ([3]; plasma, iv, 100 mg, Table 2, day 1, before membrane, 100mg iv, ECMO patients, plasma HPLC, median, read-out: Cmax in) of 5850 ng/mL, a clearance ([3]; plasma, iv, 100 mg, Table 2, day 4, after membrane, 100mg iv, ECMO patients, noncompartmental, median, read-out: CL out (converted)) of 12.8 mL/min and a Vd ([3]; plasma, iv, 100 mg, Table 2, day 4, after membrane, 100mg iv, ECMO patients, noncompartmental, median, read-out: Vd out) of 18.1 L. For the same molecule, the Cmax ([3]; plasma, iv, 100 mg, Table 2, day 4, after membrane, 100mg iv, ECMO patients, plasma HPLC, median, read-out: Cmax out) was 6750 ng/mL, the AUC ([3]; plasma, iv, 100 mg, Table 2, day 4, after membrane, 100mg iv, ECMO patients, plasma HPLC, noncompartmental, median, read-out: AUC out) was 81000 ng·h/mL and the clearance ([3]; plasma, iv, 100 mg, Table 2, day 4, before membrane, 100mg iv, ECMO patients, noncompartmental, median, read-out: CL in (converted)) was 11.8 mL/min. The Vd ([3]; plasma, iv, 100 mg, Table 2, day 4, before membrane, 100mg iv, ECMO patients, noncompartmental, median, read-out: Vd in) was 16.1 L, the Cmax ([3]; plasma, iv, 100 mg, Table 2, day 4, before membrane, 100mg iv, ECMO patients, plasma HPLC, median, read-out: Cmax in) was 12200 ng/mL and the AUC ([3]; plasma, iv, 100 mg, Table 2, day 4, before membrane, 100mg iv, ECMO patients, plasma HPLC, noncompartmental, median, read-out: AUC in) was 88800 ng·h/mL. For the same molecule, the AUC ([3]; plasma, iv, 100 mg, day 1, ECMO patients without acute kidney injury, after membrane, 100mg iv, read-out: No AKI AUCout) was 61900 ng·h/mL, the AUC ([3]; plasma, iv, 100 mg, day 1, ECMO patients without hepatic failure, after membrane, 100mg iv, read-out: No hepatic failure AUCout) was 66100 ng·h/mL and the AUC ([3]; plasma, iv, 100 mg, day 4, ECMO patients without acute kidney injury, after membrane, 100mg iv, read-out: No AKI AUCout) was 95100 ng·h/mL. For the same molecule, the AUC ([3]; plasma, iv, 100 mg, day 4, ECMO patients without hepatic failure, after membrane, 100mg iv, read-out: No hepatic failure AUCout) was 117000 ng·h/mL, the AUC ([3]; adult ECMO patients, 100mg 60-minute iv infusion, day 1, sample after the membrane, plasma HPLC, noncompartmental, 95%CI 52.4 - 76.7, 10 patients, read-out: AUCout on day one) was 63400 ng·h/mL and the MIC90 (Candida albicans) was 0.03 µg/mL (≈ 0.0236 µM).
